The values below come from ChEMBL document CHEMBL4152349, “A Fragment-Derived Clinical Candidate for Antagonism of X-Linked and Cellular Inhibitor of Apoptosis Proteins: 1-(6-[(4-Fluorophenyl)methyl]-5-(hydroxymethyl)-3,3-dimethyl-1 H,2 H,3 H-pyrrolo[3,2- b]pyridin-1-yl)-2-[(2 R,5 …” (J Med Chem, 2018).

Data set [1] is described as follows: Chromatographic hydrophobicity index, log D of the compound at pH 7.4 by HPLC method. Format: physicochemical. To be noted: buffer.
A further data set deals with MDA-MB-231. The data set can be described thus: cells. To be noted: Homo sapiens, MDA-MB-231, 72 h.
Data set [2] in a line: Drug level in cynomolgus monkey hepatocytes treated with 1-(6-(4-fluorobenzyl)-3,3-dimethyl-2,3-dihydro-1H-pyrrolo[3,2-b]pyridin-1-yl)-2-((2R,5R)-5-methyl-2-(((R)-3-methylmorpholino)methyl)piperazin-1-yl)ethanone at 10 uM up to 90 mins by LC-MS analysis. It is filed as ADME, cell-based, Macaca fascicularis, Hepatocyte.
The nature of data set [3]: Drug level in CD-1 mouse hepatocytes treated with 1-(6-(4-fluorobenzyl)-3,3-dimethyl-2,3-dihydro-1H-pyrrolo[3,2-b]pyridin-1-yl)-2-((2R,5R)-5-methyl-2-(((R)-3-methylmorpholino)methyl)piperazin-1-yl)ethanone at 10 uM up to 90 mins by LC-MS analysis. Format: ADME, cell-based, Hepatocyte.
A short description of data set [4]: Drug level in human hepatocytes treated with 1-(6-(4-fluorobenzyl)-3,3-dimethyl-2,3-dihydro-1H-pyrrolo[3,2-b]pyridin-1-yl)-2-((2R,5R)-5-methyl-2-(((R)-3-methylmorpholino)methyl)piperazin-1-yl)ethanone at 10 uM up to 90 mins by LC-MS analysis. It is filed as ADME, cell-based, Hepatocyte.
The target in the next data set is hERG (KCNH2) (Homo sapiens, UniProt Q12809). The data set can be described thus: in vitro. The settings on record: CHO-K1 cells expressing human ERG.
Another data set concerns the target CYP3A4 (Homo sapiens, UniProt P08684). The data set can be described thus: in vitro. To be noted: human CYP3A4 supersomes.

CYP3A4, sequence (P08684 whole entry): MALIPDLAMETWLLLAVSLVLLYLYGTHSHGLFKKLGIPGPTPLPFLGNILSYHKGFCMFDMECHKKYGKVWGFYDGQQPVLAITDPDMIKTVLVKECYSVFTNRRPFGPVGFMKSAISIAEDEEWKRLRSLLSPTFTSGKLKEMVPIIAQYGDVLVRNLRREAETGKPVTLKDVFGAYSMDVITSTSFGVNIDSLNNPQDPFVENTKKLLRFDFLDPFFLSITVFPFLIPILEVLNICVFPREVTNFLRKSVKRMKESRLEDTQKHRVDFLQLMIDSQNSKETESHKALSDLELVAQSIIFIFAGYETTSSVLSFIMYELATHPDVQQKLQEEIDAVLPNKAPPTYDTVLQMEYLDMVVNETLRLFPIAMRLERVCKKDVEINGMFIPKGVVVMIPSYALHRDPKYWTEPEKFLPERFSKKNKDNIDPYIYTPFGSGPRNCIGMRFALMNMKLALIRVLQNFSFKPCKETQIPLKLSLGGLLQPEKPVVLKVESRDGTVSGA
hERG (KCNH2), sequence (Q12809 whole entry): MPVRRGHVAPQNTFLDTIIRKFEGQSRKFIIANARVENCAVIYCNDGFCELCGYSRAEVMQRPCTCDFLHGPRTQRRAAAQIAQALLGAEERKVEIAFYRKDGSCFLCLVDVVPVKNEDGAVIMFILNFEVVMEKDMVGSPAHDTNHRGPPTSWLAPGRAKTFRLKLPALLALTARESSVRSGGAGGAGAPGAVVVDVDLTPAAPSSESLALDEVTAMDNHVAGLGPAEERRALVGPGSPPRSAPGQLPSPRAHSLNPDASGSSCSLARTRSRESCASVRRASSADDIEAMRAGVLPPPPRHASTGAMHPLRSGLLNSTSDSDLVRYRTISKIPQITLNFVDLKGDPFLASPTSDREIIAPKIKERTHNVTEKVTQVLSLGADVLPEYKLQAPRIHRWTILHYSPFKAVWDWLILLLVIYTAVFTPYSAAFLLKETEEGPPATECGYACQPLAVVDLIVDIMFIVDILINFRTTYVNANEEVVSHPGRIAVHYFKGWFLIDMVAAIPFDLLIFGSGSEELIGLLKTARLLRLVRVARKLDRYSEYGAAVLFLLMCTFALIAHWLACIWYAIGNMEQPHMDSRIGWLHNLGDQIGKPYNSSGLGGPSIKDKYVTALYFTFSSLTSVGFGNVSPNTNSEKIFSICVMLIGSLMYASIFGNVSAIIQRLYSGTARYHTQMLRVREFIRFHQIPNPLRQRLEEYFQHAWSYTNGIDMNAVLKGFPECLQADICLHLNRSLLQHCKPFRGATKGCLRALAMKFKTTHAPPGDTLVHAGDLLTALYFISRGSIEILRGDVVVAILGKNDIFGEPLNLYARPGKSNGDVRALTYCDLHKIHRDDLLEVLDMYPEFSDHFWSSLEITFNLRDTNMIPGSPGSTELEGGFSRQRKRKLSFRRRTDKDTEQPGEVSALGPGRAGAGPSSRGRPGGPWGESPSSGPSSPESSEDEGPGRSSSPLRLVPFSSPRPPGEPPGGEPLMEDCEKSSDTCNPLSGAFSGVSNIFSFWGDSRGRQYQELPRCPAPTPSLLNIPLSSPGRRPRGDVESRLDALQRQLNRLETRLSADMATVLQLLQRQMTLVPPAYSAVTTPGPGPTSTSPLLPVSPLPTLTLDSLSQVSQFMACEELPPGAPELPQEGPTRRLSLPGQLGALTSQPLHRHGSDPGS

Turning to `C[C@@H]1CN(CC(=O)N2CC(C)(C)c3nc(CO)c(Cc4ccc(F)cc4)cc32)[C@@H](CN2[C@H](C)COC[C@H]2C)CN1`, in data set [1], the chromatographic logD (usually lipophilicity estimated from chromatographic retention) worked out at 3.5.

As for `C[C@@H]1CN(CC(=O)N2CC(C)(C)c3cc(=O)n(Cc4ccc(F)cc4)cc32)[C@@H](CN2[C@H](C)COC[C@H]2C)CN1`, in data set [1], the chromatographic logD was found to be 2.4.

For `CN[C@@H](C)C(=O)N[C@H](C(=O)N1CCC[C@H]1c1nc(C(=O)c2ccc(F)cc2)cs1)C1CCCCC1` [LCL-161], the IC50 (in general, the concentration needed to halve the response being measured) in the data set on MDA-MB-231 stood at 7.8 nM.

As for `C[C@@H]1CN(CC(=O)N2CC(C)(C)c3ncc(Cc4ccc(F)cc4)cc32)[C@@H](CN)CN1`, the Drug uptake result in data set [2], in data set [3] and in data set [4] was “Active” throughout.

Turning to `C[C@@H]1CN(CC(=O)N2CC(C)(C)c3nnc(Cc4ccc(F)cc4F)cc32)[C@@H](CN2Cc3cc(F)ccc3C2=O)CN1`, the chromatographic logD in data set [1] was 2.6. In addition, the inhibition (commonly the drop in the measured response relative to a control, in per cent) at 10 min, 30 µM against hERG (KCNH2) stood at 25%. The half-life (in general, the time in which the quantity being followed falls by half) at 40 min, 1 µM at CYP3A4 was 37 min. The compound also showed an IC50 in the data set on MDA-MB-231 of 1.9 nM.

On hERG (KCNH2), `C[C@@H]1CN(CC(=O)N2CC(C)(C)c3nnc(Cc4ccc(F)cc4)cc32)[C@@H](CN2Cc3ccccc3C2=O)CN1` displayed an inhibition at 10 min, 30 µM of 12%. On CYP3A4, this compound gave a half-life at 40 min, 1 µM of 38 min. The compound also had an IC50 in the data set with MDA-MB-231 of 16 nM.

For the compound `C[C@@H]1CN(CC(=O)N2CC(C)(C)c3[nH]c(=O)c(Cc4ccc(F)cc4)cc32)[C@@H](CN2[C@H](C)COC[C@H]2C)CN1`, the chromatographic logD in data set [1] was found to be 2.7.

In the case of `C[C@@H]1CN(CC(=O)N2CC(C)(C)c3nnc(Cc4ccc(F)cc4F)cc32)[C@@H](CN2Cc3c(F)cccc3C2=O)CN1`, the chromatographic logD in data set [1] was found to be 2.7. Further, at hERG (KCNH2), the inhibition at 10 min, 30 µM is 28%. Also, at CYP3A4, the half-life at 40 min, 1 µM was above 70 min. The compound also came in with an IC50 with MDA-MB-231 of 0.59 nM.

For the compound `C[C@@H]1CN(CC(=O)N2CC(C)(C)c3nnc(Cc4ccc(F)cc4F)cc32)[C@@H](CN2Cc3ccc(F)cc3C2=O)CN1`, in data set [1], the chromatographic logD came to 3.1. Moreover, at hERG (KCNH2), the inhibition at 10 min, 30 µM is 18%. This compound came in with a half-life at 40 min, 1 µM at CYP3A4 of 41 min. The IC50 in the data set on MDA-MB-231 came out at 2.9 nM.

`C[C@@H]1CN(CC(=O)N2CC(C)(C)c3c2cc(Cc2ccc(F)cc2)c(=O)n3C)[C@@H](CN2[C@H](C)COC[C@H]2C)CN1` had a chromatographic logD in data set [1] of 3.2.
